Test results: patent publication US20200317642A1, “AMINE-SUBSTITUTED HETEROCYCLIC COMPOUNDS AS EHMT2 INHIBITORS AND DERIVATIVES THEREOF” (Epizyme, Inc., priority 2017, published 2020)

Columns and labels:
[1] = biological target: T1, human EHMT2 913-1193 (Homo sapiens, UniProt Q96KQ7); assay: EHMT2 enzyme assay on histone peptide substrate; format: biochemical; conditions: Table 3; histone H3 1-15 peptide, balanced conditions; read-out: EHMT2 PEP (IC50 μM)
T1 construct: recombinant purified human EHMT2 913-1193, Viva; purchased Viva
T1 sequence (Q96KQ7 913-1193): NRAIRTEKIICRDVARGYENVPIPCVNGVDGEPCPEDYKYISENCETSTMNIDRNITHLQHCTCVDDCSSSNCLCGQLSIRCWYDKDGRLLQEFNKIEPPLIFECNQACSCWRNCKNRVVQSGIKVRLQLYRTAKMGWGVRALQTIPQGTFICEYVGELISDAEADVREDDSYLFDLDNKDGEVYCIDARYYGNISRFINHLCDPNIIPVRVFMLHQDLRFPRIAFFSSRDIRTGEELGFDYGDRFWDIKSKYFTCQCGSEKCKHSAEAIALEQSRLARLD
Excerpt: Recombinant purified human EHMT2 913-1193 ([…]) synthesized by Viva was used for all experiments. Biotinylated histone peptides were synthesized by Biopeptide and HPLC-purified to >95% purity. Streptavidin Flashplates and seals were purchased from PerkinElmer and 384 Well V-bottom Polypropylene Plates were from Greiner. ^3H-labeled S-adenosylmethionine (^3H-SAM) was obtained from American Radiolabeled Chemicals with a specific activity of 80 Ci/mmol. Unlabeled SAM and S-adenosylhomocysteine (SAH) were obtained from American Radiolabeled Chemicals and Sigma-Aldrich respectively. Flashplates were washed in a Biotek ELx-405 with 0.1% Tween. 384-well Flashplates and 96-well filter binding plates were read on a TopCount microplate reader (PerkinElmer). Compound serial dilutions were performed on a Freedom EVO (Tecan) and spotted into assay plates using a Thermo Scientific Matrix PlateMate (Thermo Scientific). Reagent cocktails were added by Multidrop Combi (Thermo Scientific).
10-point curves of test compounds were made on a Freedom EVO (Tecan) using serial 3-fold dilutions in DMSO, beginning at 2.5 mM (final top concentration of compound was […] and the DMSO was 2%). A 1 μL aliquot of the inhibitor dilution series was spotted in a polypropylene 384-well V-bottom plate (Greiner) using a Thermo Scientific Matrix PlateMate (Thermo Scientific). The 100% inhibition control consisted of 1 mM final concentration of the product inhibitor S-adenosylhomocysteine (SAH, Sigma-Aldrich). Compounds were incubated for 30 minutes with 40 μL per well of 0.031 nM EHMT2 (recombinant purified human EHMT2 913-1193, Viva) in 1× assay buffer (20 mM Bicine [pH 7.5], 0.002% Tween 20, 0.005% Bovine Skin Gelatin and 1 mM TCEP). 10 μL per well of substrate mix comprising assay buffer, ^3H-SAM (^3H-labeled S-adenosylmethionine, American Radiolabeled Chemicals, specific activity of 80 Ci/mmol), unlabeled SAM (American Radiolabeled Chemicals), and peptide representing histone H3 residues 1-15 containing C-terminal biotin (appended to a C-terminal amide-capped lysine, synthesized by Biopeptide and HPLC-purified to greater than 95% purity) were added to initiate the reaction (both substrates were present in the final reaction mixture at their respective Km values, an assay format referred to as “balanced conditions”). Reactions were incubated for 60 minutes at room temperature and quenched with 10 μL per well of 400 μM unlabeled SAM, then transferred to a 384-well streptavidin Flashplate (PerkinElmer) and washed in a Biotek ELx-405 well washer with 0.1% Tween after 60 minutes. 384-well Flashplates were read on a TopCount microplate reader (PerkinElmer).

[2] = test system: H3K9me2 in MDA-MB-231 cells; assay: MDA-MB-231 H3K9me2 in-cell western assay (EHMT2 ICW); format: cell-based; conditions: Homo sapiens, Table 3, read-out: EHMT2 ICW (IC50 μM)
Excerpt: MDA-MB-231 cell line was purchased from ATCC (Manassas, Va., USA). RPMI/Glutamax medium, Penicillin-Streptomycin, Heat Inactivated Fetal Bovine Serum, and D-PBS were purchased from Life Technologies (Grand Island, N.Y., USA). Odyssey blocking buffer, 800 CW goat anti-mouse IgG (H+L) antibody, and Licor Odyssey Infrared Scanner were purchased from Licor Biosciences, Lincoln, Nebr., USA. H3K9me2 mouse monoclonal antibody (Cat #1220) was purchased from Abcam (Cambridge, Mass., USA). 16% Paraformaldehyde was purchased from Electron Microscopy Sciences, Hatfield, Pa., USA). MDA-MB-231 cells were maintained in complete growth medium (RPMI supplemented with 10% v/v heat inactivated fetal bovine serum) and cultured at 37° C. under 5% C02. UNC0638 was purchased from Sigma-Aldrich (St. Louis, Mo., USA).
General Procedure for MDA-MB-231 HEK9me2 in-Cell Western Assay.
Compound (100 nL) was added directly to 384-well cell plate. MDA-MB-231 cells (ATCC) were seeded in assay medium (RPMI/Glutamax supplemented with 10% v/v heat inactivated fetal bovine serum and 1% Penicillin/Streptomycin, Life Technologies) at a concentration of 3,000 cells per well to a Poly-D-Lysine coated 384-well cell culture plate with 50 μL per well. Plates were incubated at 37° C., 5% CO2 for 48 hours (BD Biosciences 356697). […] After the incubation, 50 μL per well of 8% paraformaldehyde (Electron Microscopy Sciences) in PBS was added to the plates and incubated at room temperature for 20 minutes. Plates were transferred to a Biotek 406 plate washer and washed 2 times with 100 μL per well of wash buffer (1×PBS containing 0.3% Triton X-100 (v/v)). Next, 60 μL per well of Odyssey blocking buffer (Licor Biosciences) was added to each plate and incubated for 1 hour at room temperature. Blocking buffer was removed and 20 μL of monoclonal primary antibody α-H3K9me2 (Abcam) diluted 1:800 in Odyssey buffer with 0.1% Tween 20 (v/v) were added and plates were incubated overnight (16 hours) at 4° C. Plates were washed 5 times with 100 μL per well of wash buffer. Next 20 μL per well of secondary antibody was added (1:500 800 CW donkey anti-mouse IgG (H+L) antibody (Licor Biosciences), 1:1000 DRAQ5 (Cell Signaling Technology) in Odyssey buffer with 0.1% Tween 20 (v/v)) and incubated for 1 hour at room temperature. The plates were washed 5 times with 100 μL per well wash buffer then 2 times with 100 μL per well of water. Plates were allowed to dry at room temperature then imaged on a Licor Odyssey Infrared Scanner (Licor Biosciences) which measured integrated intensity at 700 nm and 800 nm wavelengths. Both 700 and 800 channels were scanned.
First, the ratio for each well was determined by:
Each plate included fourteen control wells of DMSO only treatment (Minimum Inhibition) as well as fourteen control wells (background wells) for maximum inhibition treated with control compound UNC0638 (Background wells).
The average of the ratio values for each well was calculated and used to determine the percent inhibition for each test well in the plate. Control compound was serially diluted three-fold in DMSO for a total of 10 test concentrations beginning at 1 μM. Percent inhibition was calculated as: […]
IC50 curves were generated using triplicate wells per concentration of compound. The IC50 is the concentration of compound at which measured methylation is inhibited by 50% as interpolated from the dose response curves. IC50 values were calculated using a non-linear regression (variable slope-four parameter fit model) with by the following formula:
where Top is fixed at 100% and Bottom is fixed to 0%, [I]=concentration of inhibitor, IC50=half maximal inhibitory concentration and n=Hill Slope.

Work on `CNc1cc(C)nc(Nc2ccc(Br)c(CNCCN3CCCC3)c2)n1` [Compound 1, 2-N-[4-bromo-3-([[2-(pyrrolidin-1-yl)ethyl]amino]methyl)phenyl]-4-N,6-dimethylpyrimidine-2,4-diamine] yielded an IC50 [1] of 0.1 to 1 µM and an IC50 [2] of 1 to 10 µM.

Work on `CNc1cc(C)nc(Nc2ccc(Cl)c(C(=O)NCC3COC3)c2)n1` [Compound 2, 2-chloro-5-[[4-methyl-6-(methylamino)pyrimidin-2-yl]amino]-N-(oxetan-3-ylmethyl)benzamide] yielded an IC50 [1] of over 10 µM and an IC50 [2] of over 10 µM.

With `CNc1cc(C)nc(Nc2ccc(Cl)c(C(=O)NCC3CCC3)c2)n1` [Compound 3] the IC50 [1] was 1 to 10 µM and the IC50 [2] was over 10 µM.

Work on `CNc1cc(C)nc(Nc2ccc(Cl)c(C(=O)NCC3CC3)c2)n1` [Compound 4] yielded an IC50 [1] of over 10 µM and an IC50 [2] of over 10 µM.

Compound `CNc1cc(C)nc(Nc2ccc(Cl)c(C(=O)Nc3cccnn3)c2)n1` [Compound 5] has an IC50 [1] of over 10 µM and an IC50 [2] of over 10 µM.

Work on `CNc1cc(C)nc(Nc2ccc(Cl)c(C(=O)Nc3ncco3)c2)n1` [Compound 6] yielded an IC50 [1] of 1 to 10 µM and an IC50 [2] of 1 to 10 µM.

`CNc1cc(C)nc(Nc2ccc(Cl)c(C(=O)NCCN3CCCC3)c2)n1` [Compound 7] showed an IC50 [1] of 0.1 to 1 µM and an IC50 [2] of 1 to 10 µM.

In the case of `CNc1cc(C)nc(Nc2ccc(Cl)c(C(=O)NC3CCOCC3)c2)n1` [Compound 8], the IC50 [1] is reported as over 10 µM and the IC50 [2] is reported as over 10 µM.

`CCCCNC(=O)c1cc(Nc2nc(C)cc(NC)n2)ccc1Cl` [Compound 9] gave an IC50 [1] of 1 to 10 µM and an IC50 [2] of 1 to 10 µM.

`CNc1cc(C)nc(Nc2ccc(Cl)c(C(=O)Nc3ccccc3)c2)n1` [Compound 10] was tested, and the IC50 [1] was over 10 µM and the IC50 [2] was over 10 µM.

`CNc1cc(C)nc(Nc2ccc(C3CC3)c(CNCCN3CCCC3)c2)n1` [Compound 11, 2-N-[4-cyclopropyl-3-([[2-(pyrrolidin-1-yl)ethyl]amino]methyl)phenyl]-4-N,6-dimethylpyrimidine-2,4-diamine] was tested, and the IC50 [1] was 0.1 to 1 µM and the IC50 [2] was 1 to 10 µM.

For `CNc1cc(C)nc(Nc2ccc(Cl)c(C(=O)Nc3cscn3)c2)n1` [Compound 13], the IC50 [1] was 1 to 10 µM and the IC50 [2] was 1 to 10 µM.

`CNc1cc(C)nc(Nc2ccc(Cl)c(C(=O)Nc3cocn3)c2)n1` [Compound 14, 2-chloro-5-[[4-methyl-6-(methylamino)pyrimidin-2-yl]amino]-N-(1,3-oxazol-4-yl)benzamide] showed an IC50 [1] of over 10 µM and an IC50 [2] of over 10 µM.

Work on `CNc1cc(C)nc(Nc2ccc(Cl)c(C(=O)Nc3cn(C)cn3)c2)n1` [Compound 15] yielded an IC50 [1] of over 10 µM and an IC50 [2] of over 10 µM.

For `CNc1cc(C)nc(Nc2ccc(OC)c(C#CCN3CCNCC3)c2)n1` [Compound 28, 2-N-[4-methoxy-3-[3-(piperazin-1-yl)prop-1-yn-1-yl]phenyl]-4-N,6-dimethylpyrimidine-2,4-diamine], the IC50 [1] was 0.1 to 1 µM and the IC50 [2] was 1 to 10 µM.

`CNc1cc(C)nc(Nc2ccc(C)c(C(=O)Nc3cc(C#N)ccn3)c2)n1` [Compound 30] showed an IC50 [1] of over 10 µM and an IC50 [2] of over 10 µM.

`CNc1cc(C)nc(Nc2ccc(OC)c(CNCCN3CCC[C@H]3C)c2)n1` [Compound 31] was tested, and the IC50 [1] was 0.1 to 1 µM and the IC50 [2] was 1 to 10 µM.

`CNc1cc(C)nc(Nc2ccc(OC)c(CNCCN3CCC[C@@H]3C)c2)n1` [Compound 32] showed an IC50 [1] of over 10 µM and an IC50 [2] of 1 to 10 µM.

In the case of `CNc1cc(C)nc(Nc2ccc(C)c(C(=O)Nc3ncn(C)n3)c2)n1` [Compound 33], the IC50 [1] is reported as over 10 µM and the IC50 [2] is reported as over 10 µM.

In the case of `CNc1cc(C)nc(Nc2ccc(OC)c(CNCCN3CC(C)C3)c2)n1` [Compound 35], the IC50 [1] is reported as over 10 µM and the IC50 [2] is reported as over 10 µM.

With `CNc1cc(C)nc(Nc2ccc(C)c(C(=O)Nc3cn(C4CC4)cn3)c2)n1` [Compound 36] the IC50 [1] was over 10 µM and the IC50 [2] was over 10 µM.

Compound `CNc1cc(C)nc(Nc2ccc(C)c(C(=O)Nc3c[nH]cn3)c2)n1` [Compound 37] has an IC50 [1] of 1 to 10 µM and an IC50 [2] of over 10 µM.

`CNc1cc(C)nc(Nc2ccc(OC)c(CNCCN3CC[C@@H](C)C3)c2)n1` [Compound 38] gave an IC50 [1] of 1 to 10 µM and an IC50 [2] of over 10 µM.

Work on `CNc1cc(C)nc(Nc2ccc(OC)c(CNCCN3CC[C@H](C)C3)c2)n1` [Compound 39] yielded an IC50 [1] of 0.1 to 1 µM and an IC50 [2] of 1 to 10 µM.

For `CNc1cc(C)nc(Nc2ccc(OC)c(OC[C@H](O)CN3CCCCC3)c2)n1` [Compound 40], the IC50 [1] was over 10 µM and the IC50 [2] was over 10 µM.

With `CNc1cc(C)nc(Nc2ccc(OC)c(OC[C@H](O)CN3CC4(CC4)C3)c2)n1` [Compound 41] the IC50 [1] was over 10 µM and the IC50 [2] was over 10 µM.

In the case of `CNc1cc(C)nc(Nc2ccc(OC)c(CNC[C@@H](C)N3CCCC3)c2)n1` [Compound 42], the IC50 [1] is reported as 0.1 to 1 µM and the IC50 [2] is reported as 1 to 10 µM.

Compound `CNc1cc(C)nc(Nc2ccc(OC)c(CNC[C@H](C)N3CCCC3)c2)n1` [Compound 43] has an IC50 [1] of over 10 µM and an IC50 [2] of over 10 µM.

Work on `CNc1cc(C)nc(Nc2ccc(OC)c(C#CC[N+](C)(C)CCN)c2)n1` [Compound 45] yielded an IC50 [1] of over 10 µM and an IC50 [2] of over 10 µM.

`CNc1cc(C)nc(Nc2ccc(OC)c(CN[C@@H](C)CN3CCCC3)c2)n1` [Compound 47] was tested, and the IC50 [1] was 0.1 to 1 µM and the IC50 [2] was 1 to 10 µM.

For `CNc1cc(C)nc(Nc2ccc(OC)c(CN[C@H](C)CN3CCCC3)c2)n1` [Compound 48], the IC50 [1] was 1 to 10 µM and the IC50 [2] was 1 to 10 µM.

`CNc1cc(C)nc(Nc2ccc(OC)c(C#CCNCCN(C)C)c2)n1` [Compound 49] showed an IC50 [1] of 1 to 10 µM and an IC50 [2] of 1 to 10 µM.
